Experimental data taken from PMC5423648, “Acetyl group coordinated progression through the catalytic cycle of an arylalkylamine N-acetyltransferase” (PLoS ONE, 2017).

Molecular target: T1, DAT (Drosophila melanogaster, UniProt Q94521)
T1 construct: gene speck; construct, tags and host of the DAT used for ITC not described
Assay: ITC
Assay type: binding

T1 sequence (Q94521 36-275): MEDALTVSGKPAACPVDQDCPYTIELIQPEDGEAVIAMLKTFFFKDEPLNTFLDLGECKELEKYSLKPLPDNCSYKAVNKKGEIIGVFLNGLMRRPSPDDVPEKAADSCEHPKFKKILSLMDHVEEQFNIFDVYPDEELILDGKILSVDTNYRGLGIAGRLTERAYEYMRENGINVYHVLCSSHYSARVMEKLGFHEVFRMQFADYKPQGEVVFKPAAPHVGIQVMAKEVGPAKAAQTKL

Structure (SMILES): CC(=O)SCCNC(=O)CCNC(=O)[C@H](O)C(C)(C)COP(=O)(O)OP(=O)(O)OC[C@H]1O[C@@H](n2cnc3c(N)ncnc32)[C@H](O)[C@@H]1OP(=O)(O)O [acetyl-CoA]
- Kd: 3.7 ± 0.1 µM
